Drawing on ChEMBL document CHEMBL1156118, “Evaluation of substituted 6-arylquinazolin-4-amines as potent and selective inhibitors of cdc2-like kinases (Clk)” (Bioorg Med Chem Lett, 2009), this text covers IC50 and Kd for 23 compounds.

Usually pIC50 stands for the negative decadic logarithm of the IC50, by convention in mol/L. In general, pKd refers to the negative decadic logarithm of the Kd, by convention in mol/L.

pIC50, pKd: −log10 of the molar value.

Assay [1] has as its target T1, Dual specificity protein kinase CLK4 (Homo sapiens, UniProt Q9HAZ1). Kind of assay: Inhibition of Clk4.
In assay [2] the target is Dual specificity protein kinase CLK1 (Homo sapiens, UniProt P49759). Kind of assay: Binding affinity to Clk1 assessed as dissociation constant.
Dual specificity protein kinase CLK1, sequence (P49759 whole entry): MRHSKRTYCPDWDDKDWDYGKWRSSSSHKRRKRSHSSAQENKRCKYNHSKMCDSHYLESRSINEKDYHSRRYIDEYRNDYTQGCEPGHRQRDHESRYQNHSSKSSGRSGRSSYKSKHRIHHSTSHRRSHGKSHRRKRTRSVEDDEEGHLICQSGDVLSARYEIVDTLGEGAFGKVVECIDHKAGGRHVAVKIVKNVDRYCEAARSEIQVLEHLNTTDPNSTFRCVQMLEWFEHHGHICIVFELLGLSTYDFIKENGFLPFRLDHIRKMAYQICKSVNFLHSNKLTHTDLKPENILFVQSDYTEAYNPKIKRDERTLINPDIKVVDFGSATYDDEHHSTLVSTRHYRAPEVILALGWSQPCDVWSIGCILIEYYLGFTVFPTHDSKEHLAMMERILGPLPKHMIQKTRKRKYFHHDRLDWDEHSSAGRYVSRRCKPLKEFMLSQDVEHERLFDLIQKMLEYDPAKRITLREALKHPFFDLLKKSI
Assay [3] deals with Dual specificity protein kinase CLK2 (Homo sapiens, UniProt P49760). Kind of assay: Binding affinity to Clk2 assessed as dissociation constant.
Dual specificity protein kinase CLK2, sequence (P49760 whole entry): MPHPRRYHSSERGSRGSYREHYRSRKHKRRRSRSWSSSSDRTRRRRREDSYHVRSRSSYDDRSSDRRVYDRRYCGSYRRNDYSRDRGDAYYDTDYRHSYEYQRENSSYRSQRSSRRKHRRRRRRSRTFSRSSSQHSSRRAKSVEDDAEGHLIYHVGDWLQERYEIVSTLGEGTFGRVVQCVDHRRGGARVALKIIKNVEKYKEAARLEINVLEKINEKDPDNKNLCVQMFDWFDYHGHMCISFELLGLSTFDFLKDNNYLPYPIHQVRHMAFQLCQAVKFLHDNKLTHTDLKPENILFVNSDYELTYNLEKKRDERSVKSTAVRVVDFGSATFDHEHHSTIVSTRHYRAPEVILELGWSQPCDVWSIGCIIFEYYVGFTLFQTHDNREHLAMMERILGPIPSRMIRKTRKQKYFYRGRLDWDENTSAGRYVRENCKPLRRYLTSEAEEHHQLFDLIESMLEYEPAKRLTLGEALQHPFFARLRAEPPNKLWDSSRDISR
In assay [4] the target is Dual specificity protein kinase CLK3 (Homo sapiens, UniProt P49761). Put plainly: Binding affinity to Clk3 assessed as dissociation constant.
Dual specificity protein kinase CLK3, sequence (P49761 whole entry): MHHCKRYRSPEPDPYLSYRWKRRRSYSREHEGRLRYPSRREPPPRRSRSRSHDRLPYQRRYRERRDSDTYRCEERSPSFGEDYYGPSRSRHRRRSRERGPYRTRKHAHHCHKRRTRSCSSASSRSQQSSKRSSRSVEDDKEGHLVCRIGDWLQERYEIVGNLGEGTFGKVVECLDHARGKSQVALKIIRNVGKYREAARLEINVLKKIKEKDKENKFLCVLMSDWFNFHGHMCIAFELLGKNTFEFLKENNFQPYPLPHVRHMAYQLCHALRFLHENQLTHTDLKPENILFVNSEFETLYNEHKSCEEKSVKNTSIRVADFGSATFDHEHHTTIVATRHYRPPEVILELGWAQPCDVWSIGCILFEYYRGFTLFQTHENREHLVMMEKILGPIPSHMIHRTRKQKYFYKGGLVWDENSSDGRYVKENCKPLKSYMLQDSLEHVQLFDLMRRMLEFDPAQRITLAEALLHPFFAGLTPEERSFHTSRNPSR
Assay [5] addresses T1, Dual specificity protein kinase CLK4. Kind of assay: Binding affinity to Clk4 assessed as dissociation constant.
Assay [6] addresses Dual specificity tyrosine-phosphorylation-regulated kinase 1A (Homo sapiens, UniProt Q13627). Kind of assay: Binding affinity to Dyrk1A assessed as dissociation constant.
The target of assay [7] is Dual specificity tyrosine-phosphorylation-regulated kinase 1B (Homo sapiens, UniProt Q9Y463). Put plainly: Binding affinity to Dyrk1B assessed as dissociation constant.
Dual specificity tyrosine-phosphorylation-regulated kinase 1B, sequence (Q9Y463 whole entry): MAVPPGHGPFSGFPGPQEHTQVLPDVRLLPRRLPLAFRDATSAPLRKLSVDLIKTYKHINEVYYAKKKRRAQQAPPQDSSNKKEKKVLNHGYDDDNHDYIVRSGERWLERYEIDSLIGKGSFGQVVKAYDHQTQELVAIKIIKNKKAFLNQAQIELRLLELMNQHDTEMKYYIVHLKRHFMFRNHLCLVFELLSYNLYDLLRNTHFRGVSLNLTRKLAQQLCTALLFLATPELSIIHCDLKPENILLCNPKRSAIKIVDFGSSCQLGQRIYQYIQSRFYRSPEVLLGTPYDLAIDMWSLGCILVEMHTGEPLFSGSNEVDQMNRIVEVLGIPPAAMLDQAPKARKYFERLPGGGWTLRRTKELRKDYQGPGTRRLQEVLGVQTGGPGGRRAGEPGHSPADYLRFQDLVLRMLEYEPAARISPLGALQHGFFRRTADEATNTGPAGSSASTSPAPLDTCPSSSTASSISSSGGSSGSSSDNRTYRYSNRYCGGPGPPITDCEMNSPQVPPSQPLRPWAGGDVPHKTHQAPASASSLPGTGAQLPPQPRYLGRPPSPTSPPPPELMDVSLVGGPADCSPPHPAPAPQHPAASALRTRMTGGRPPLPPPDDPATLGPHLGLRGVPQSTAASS
Assay [8] deals with Epidermal growth factor receptor (Homo sapiens, UniProt P00533). Put plainly: Binding affinity to EGFR assessed as dissociation constant.
Epidermal growth factor receptor, sequence (P00533 whole entry): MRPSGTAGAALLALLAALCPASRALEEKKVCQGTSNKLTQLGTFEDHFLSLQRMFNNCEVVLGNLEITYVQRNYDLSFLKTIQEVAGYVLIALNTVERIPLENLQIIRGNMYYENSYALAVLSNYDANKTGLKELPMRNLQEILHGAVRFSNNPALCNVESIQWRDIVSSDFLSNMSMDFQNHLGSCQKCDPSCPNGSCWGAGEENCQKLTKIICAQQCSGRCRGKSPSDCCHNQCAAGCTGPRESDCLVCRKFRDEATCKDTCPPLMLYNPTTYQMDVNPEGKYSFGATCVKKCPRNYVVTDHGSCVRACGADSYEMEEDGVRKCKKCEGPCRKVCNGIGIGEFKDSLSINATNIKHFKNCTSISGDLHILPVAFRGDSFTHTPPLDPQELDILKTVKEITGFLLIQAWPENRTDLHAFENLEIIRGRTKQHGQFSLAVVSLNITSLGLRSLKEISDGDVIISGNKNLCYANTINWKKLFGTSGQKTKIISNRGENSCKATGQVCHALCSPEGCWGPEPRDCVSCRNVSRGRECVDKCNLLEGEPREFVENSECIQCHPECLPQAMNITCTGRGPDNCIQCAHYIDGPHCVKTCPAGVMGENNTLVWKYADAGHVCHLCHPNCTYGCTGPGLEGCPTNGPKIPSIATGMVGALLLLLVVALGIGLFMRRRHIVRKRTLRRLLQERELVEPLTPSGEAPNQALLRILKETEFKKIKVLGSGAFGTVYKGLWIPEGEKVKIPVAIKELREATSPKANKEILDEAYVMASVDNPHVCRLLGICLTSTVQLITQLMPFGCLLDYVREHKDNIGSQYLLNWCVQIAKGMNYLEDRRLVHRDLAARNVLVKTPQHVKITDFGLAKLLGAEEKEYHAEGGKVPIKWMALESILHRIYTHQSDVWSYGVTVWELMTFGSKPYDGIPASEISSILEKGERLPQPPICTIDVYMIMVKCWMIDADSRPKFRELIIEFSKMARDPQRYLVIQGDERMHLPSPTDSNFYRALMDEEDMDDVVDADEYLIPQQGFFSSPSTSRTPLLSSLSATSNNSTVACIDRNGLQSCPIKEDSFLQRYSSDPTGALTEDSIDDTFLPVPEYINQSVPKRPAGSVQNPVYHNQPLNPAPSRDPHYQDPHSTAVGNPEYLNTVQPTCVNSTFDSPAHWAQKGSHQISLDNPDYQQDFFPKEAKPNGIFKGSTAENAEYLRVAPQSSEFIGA

T1 sequence (Q9HAZ1 whole entry): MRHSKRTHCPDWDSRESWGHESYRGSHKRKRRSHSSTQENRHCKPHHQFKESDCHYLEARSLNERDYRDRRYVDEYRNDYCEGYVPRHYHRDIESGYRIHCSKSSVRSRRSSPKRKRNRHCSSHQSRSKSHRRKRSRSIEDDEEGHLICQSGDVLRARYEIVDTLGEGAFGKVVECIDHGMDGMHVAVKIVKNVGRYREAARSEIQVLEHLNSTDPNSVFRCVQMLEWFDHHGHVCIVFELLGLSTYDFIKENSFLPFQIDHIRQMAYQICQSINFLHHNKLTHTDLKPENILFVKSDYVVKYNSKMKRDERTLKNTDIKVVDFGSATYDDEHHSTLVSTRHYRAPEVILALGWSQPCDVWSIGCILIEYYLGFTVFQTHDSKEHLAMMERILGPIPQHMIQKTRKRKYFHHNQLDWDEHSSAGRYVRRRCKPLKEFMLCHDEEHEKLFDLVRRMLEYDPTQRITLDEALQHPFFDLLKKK

In turn, `c1cncc(CNc2ncnc3ccc(-c4ccco4)cc23)c1` showed a pIC50 in assay [1] of 6.10. Same read-out and setting: as for `Cc1csc(CNc2ncnc3ccc(-c4c(C)noc4C)cc23)c1`, the figure is 6.30; as for `Cc1noc(C)c1-c1ccc2ncnc(NCc3cccs3)c2c1`, 6.80; as for `Cc1cccc(CNc2ncnc3ccc(-c4ccc5c(c4)OCO5)cc23)c1`, 6.90. In assay [1], `COc1cccc(-c2ccc3ncnc(NCc4cccs4)c3c2)c1` showed a pIC50 of 6.05. In assay [1], `Cc1cccc(CNc2ncnc3ccc(-c4ccc5c(c4)OCCO5)cc23)c1` showed a pIC50 of 6.20. Compound `Fc1cccc(CNc2ncnc3ccc(-c4ccc5c(c4)OCO5)cc23)c1` gave a negative-log IC50 (pIC50) in assay [1] of 6.90. Consider `c1coc(-c2ccc3ncnc(NCc4ccoc4)c3c2)c1`, for which, in assay [1], the pIC50 is 6.95. `COc1cccc(-c2ccc3ncnc(NCc4cccc(C)c4)c3c2)c1` showed a pIC50 in assay [1] of 5.95. `COc1cccc(-c2ccc3ncnc(NCc4cccnc4)c3c2)c1` had a pIC50 in assay [1] of 5.45. Compound `Cc1csc(CNc2ncnc3ccc(-c4ccc5c(c4)OCO5)cc23)c1` showed a pIC50 in assay [1] of 6.75.

The compound `c1cncc(CNc2ncnc3ccc(-c4ccc5c(c4)OCCO5)cc23)c1` had a pIC50 in assay [1] of 6.35.

In assay [1], `c1csc(CNc2ncnc3ccc(-c4ccc5c(c4)OCO5)cc23)c1` gave a pIC50 of 7.20. The pKd in assay [2] was 7.43; in assay [3], 6.17; in assay [4], 6.33; in assay [5] it was 7.30; in assay [6] it was 7.57; in assay [7], 6.37. Besides, the pKd in assay [8] is 6.64. Regarding `c1coc(-c2ccc3ncnc(NCc4cccs4)c3c2)c1`, in assay [1], the pIC50 was 6.60.

Compound `Cc1csc(CNc2ncnc3ccc(-c4ccc5c(c4)OCCO5)cc23)c1` gave a pIC50 in assay [1] of 6.30.

Regarding `COc1cccc(-c2ccc3ncnc(NCc4cc(C)cs4)c3c2)c1`, the pIC50 in assay [1] is 6.00. `COc1cccc(-c2ccc3ncnc(NCc4cccc(F)c4)c3c2)c1`: the pIC50 in assay [1] is 6.15. The compound `c1nc(NCc2ccoc2)c2cc(-c3ccc4c(c3)OCO4)ccc2n1` gave a pIC50 in assay [1] of 7.20. Compared with the last compound, the pIC50 is 1.05 log units higher.

`Fc1cccc(CNc2ncnc3ccc(-c4ccco4)cc23)c1` had a negative logarithm of the IC50 (pIC50) in assay [1] of 6.85.

In the case of `Cc1cccc(CNc2ncnc3ccc(-c4ccco4)cc23)c1`, the pIC50 in assay [1] was 6.65. In assay [1], `Cc1noc(C)c1-c1ccc2ncnc(NCc3cccc(F)c3)c2c1` had a pIC50 of 6.75. This pIC50 and that of the compound before are within 0.2 log units of each other. In assay [1], `COc1cccc(-c2ccc3ncnc(NCc4ccoc4)c3c2)c1` gave a pIC50 of 6.00. `c1cncc(CNc2ncnc3ccc(-c4ccc5c(c4)OCO5)cc23)c1` had a pIC50 in assay [1] of 7.00.
